Laboratory results from patent publication US20090143335A1, “MODIFIED ABSORPTION FORMULATION OF GABOXADOL” (H. LUNDBECK A/S, priority 2007, published 2009).

How the values were obtained:
[1] = Pharmacokinetics of gaboxadol in rats after PO dosing, with or without 5-HTP pre-incubation; format: in vivo, Sprague-Dawley rats; settings: rat; for Cmax: Cmax ± S.E.M.; for Tmax: Tmax ± S.E.M.
Method: (§1) The pharmacokinetics (PK) was evaluated in WinNonlin. Plasma concentrations curves of the animals dosed intravenously were fitted to a 2-compartment model whereas the data from animals dosed orally were analysed in a non-compartment model. Statistical analysis was done in Sigma Stat.
(§2) Gaboxadol was extracted from plasma and HBSS^+ samples by liquid extraction. 100 μl HBSS^+ (80 μl purified water were added to the 20 μl samples) or 100 μl plasma samples were mixed with 25 μl intern standard (d4-gaboxadol) and 25 μl purified water. Protein precipitation was carried out by addition of 400 μl cold acetonitrile. After centrifugation at 10,000 g in 15 minutes, 425 μl supernatant was transferred to glass tubes and evaporated to dryness under nitrogen at 45° C. The samples were re-solved in 80 μl methanol/acetonitrile (30:70), whirl mixed for 10 minutes and centrifuged in 3 minutes at 3000 rpm, before transferal to medium well plates and placed at 10° C. in the autosampler. Gaboxadol concentration in the extracted samples was subsequently quantified by hydrophilic interaction chromatography (HILIC-chromatography) followed by MS/MS detection. The LC system comprised of an Agilent 1100 series pump and degasser, a CTC Analytics interface transferred data to the computer and a Peltier Thermostat and HTC Pal autosampler handled the samples. An Asahipak amino column, (NH2P-50, 150×2 mm) from Phenomenex was used for the chromatographic separation with a mobile phase of 20.0 mM ammoniumacetat pH=4:acetonitrile (30:70) and a flow rate of 0.2 ml/min. 20 μL samples were injected onto the column, which was kept at room temperature. The total runtime was 10 minutes with the first 5 minutes of elution let to waste. The elution time of gaboxadol on the column was approximately 8 minutes. The MS/MS system used consisted of a Sciex API 4000 MS/MS detector with a Turbo Ion Spray and Turbo V source (Applied Biosystems). The detection was performed in negative ionization mode where gaboxadol (precursor 139.1 Da, product 110.1 Da) and d4-gaboxadol (precursor 143.0, product 112.2 Da) were measured by multiple-reaction-monitoring (MRM). The signals were linear between 0.5 and 2500.0 ng/ml and the limit of quantification by this procedure was 0.5 ng/ml. The software was from Analyst™ (Applied Biosystem, version 4.0).
0.05 or 0.5 mg gaboxadol as well as 0.0 or 20.0 mg 5-HTP was dissolved in purified water pr ml. at room temperature and placed on ice in ultrasound for 10 min. The formulations were adjusted to pH 4-5 and with NaOH/HCl and made isotonic by addition of mannitol. pH of all solutions was adjusted to pH above 4.0 and below 5.0, the osmolality was adjusted with mannitol to 280 mmol/kg.
(§3) Male Sprague-Dawley rats (Charles River Laboratories, Wilmington, Mass., USA) of 220-240 gram were housed and acclimated for 7 days before entering the experiments. The rats were maintained on standard food and water until 16-20 hours prior to dosing when food was retrieved to insure complete gastric emptying before experiments were conducted. Water was available to the animals until beginning of experiment and again 2 hours after. Each animal was randomly assigned to receive either one of the intravenous or oral formulations.
6 parallel groups of rats (n=6) were given isotonic solutions of 0.5 or 5.0 mg/kg of gaboxadol together with saline or 200.0 mg/kg 5-HTP, by oral gavage (10.0 ml/kg). The suspensions of 5-HTP were given as a pre-incubation 30 min. prior to the gaboxadol solutions.
(§4) Blood samples of 0.2 ml were taken from the tail vein by individual vein puncture and collected into plasma collection tubes containing 20 IE heparin. Samples were collected at 5, 15, 30, 45, 60 minutes and after 2, 3, 4, 6, 8 hours after gaboxadol administration. The plasma was harvested immediately by centrifugation for 10 min. at 3.600 g and stored at −80° C. until further analysis.

[2] = Pharmacokinetics of gaboxadol in beagle dogs, IV or PO, with or without co-administered tryptophan; format: in vivo; settings: dog; for bioavailability: Fa (bioavailability)
Method: Prior to commencement of the studies the protocols were approved by the Animal Welfare Committee, appointed by the Danish Ministry of Justice and all animal procedures were carried out in compliance with EC Directive 86/609/EEC, the Danish law regulating experiments on animals and NIH Guidelines for the Care and Use of Laboratory Animals. 6 full-grown male beagle dogs (body weight 15.9-21.7 kg) were selected and allocated into a roman quadrant design and assigned to receive all 6 formulations of gaboxadol hydrochloride randomly during 6 weeks. The dogs were fasted 20-24 hours before the initiation of the experiment and fed again 10 hours after the administration. The gaboxadol dose was given either as an intravenous injection (1.0 ml/kg) or as an oral solution given by gavage (5.0 ml/kg) directly into the stomach using a soft tube. All dogs received 2.5 mg/kg gaboxadol. In addition to gaboxadol, the oral formulations contained 0, 2.5, 10.0, 50.0 or 150.0 mg/kg of tryptophan to ensure simultaneous co-administration of the two compounds. All solutions were adjusted to a pH of 5.2 and osmolarity was checked with a Vapro vapour pressure osmometer (model 5520, Wescor Inc. Logan, Utah, USA), the intravenous solutions were adjusted to isoosmolarity with glucose. Blood samples of 2.0 ml were taken from the vena cephalica by individual vein puncture and collected into Eppendorf tubes containing 200 IE heparin as anticoagulant. Samples were collected before administration of gaboxadol and after 5, 15, 30, 60, 90 minutes and 2, 3, 4, 6, 8 and 10 hours after gaboxadol administration. The plasma was harvested immediately by centrifugation for 15 minutes at 2200 g and 4-8° C. and stored at −80° C. until further analysis. After each day of gaboxadol dosing the animals had 6 days of washout.
as §1
as §2, with “The signals were linear between 0.5 and 2500.0 ng/ml and the limit of quantification by this procedure was 0.5 ng/ml. The software was from Analyst™ (Applied Biosystem, version 4.0).” left out

[3] = Pharmacokinetics of gaboxadol in rats after IV dosing, with or without 5-HTP pre-incubation; format: in vivo, Sprague-Dawley rats; settings: rat; for Ke ± S.E.M.: IV gaboxadol 2.5 mg/kg
Method: as §1, §2, §3, §4
0.25 mg gaboxadol as well as 0.0 or 10.0 mg 5-HTP was dissolved in purified water pr ml. at room temperature and placed on ice in ultrasound for 10 min. The solutions of gaboxadol used for intravenous injection was filtered through a 0.45 μm filter.
Animals were administered with 100.0 mg/kg 5-HTP or saline by oral gavage 30 min. prior to intravenous injection of 2.5 mg/kg gaboxadol into the tail vein […].

[4] = male, Sprague-Dawley, in vivo, po
[5] = male, Sprague-Dawley, in vivo, po, 0.5 mg/kg
[6] = male, Sprague-Dawley, in vivo, po, 5 mg/kg
[7] = male, beagle, in vivo, po, 2.5 mg/kg
[8] = male, beagle, in vivo, po, 10 mg/kg
[9] = male, beagle, in vivo, po, 50 mg/kg
[10] = male, beagle, in vivo, po, 150 mg/kg
[11] = male, Sprague-Dawley, in vivo, iv, 2.5 mg/kg

Oc1noc2c1CCNC2 [gaboxadol, 4,5,6,7-tetrahydroisoxazolo [5,4-c]pyridine-3-ol]
Tmax ± S.E.M. [1, 4]: 43 min
Cmax ± S.E.M. [1, 5]: 294 ± 39.4 ng/mL
Cmax [1, 5]: 273 ± 26.7 ng/mL
Tmax [1, 5]: 16 min
Cmax ± S.E.M. [1, 6]: 1854 ± 509.4 ng/mL
Cmax [1, 6]: 2060 ± 153 ng/mL
Tmax [1, 6]: 20 min
Tmax [1, 4]: 63 min
AUC increase compared to the control group ([1]; PO gaboxadol 0.5 mg/kg with 5-HTP 200 mg/kg vs without): 540%
AUC increase compared to the control group ([1]; PO gaboxadol 5.0 mg/kg with 5-HTP 200 mg/kg vs without): 330%
gaboxadol elimination rate constant when 5-HTP was present, relative to control ([1]; PO gaboxadol, 5-HTP 200 mg/kg): about 25%
AUC-dose-linearity: AUC of group J relative to group G ([1]; in vivo, 5 mg/kg): ~10 times
Ke ± S.E.M. ([1]; treatment G, PO gaboxadol 0.5 mg/kg, no 5-HTP): 0.0164 ± 0.0021 min⁻¹
Ke ± S.E.M. ([1]; treatment H, PO gaboxadol 0.5 mg/kg, 5-HTP 200.0 mg/kg 30 min before): 0.0038 ± 0.0004 min⁻¹
Ke ± S.E.M. ([1]; treatment I, PO gaboxadol 5.0 mg/kg, no 5-HTP): 0.0199 ± 0.0017 min⁻¹
Ke ± S.E.M. ([1]; treatment J, PO gaboxadol 5.0 mg/kg, 5-HTP 200.0 mg/kg 30 min before): 0.0058 ± 0.0008 min⁻¹
decrease of maximal gaboxadol plasma concentration, Cmax, by tryptophan coadministration ([2]; PO 2.5 mg/kg gaboxadol, presence vs absence of 150 mg/kg tryptophan, p<0.001): 57%
ke ([2]; group A, IV 2.5 mg gaboxadol/kg, tryptophan 0 mg/kg): 1.02 ± 0.14 h⁻¹
ke ([2]; group B, PO 2.5 mg gaboxadol/kg, tryptophan 0 mg/kg): 0.46 ± 0.02 h⁻¹
ke ([2]; group C, PO 2.5 mg gaboxadol/kg, tryptophan 2.5 mg/kg): 0.50 ± 0.03 h⁻¹
ke ([2]; group D, PO 2.5 mg gaboxadol/kg, tryptophan 10 mg/kg): 0.44 ± 0.03 h⁻¹
ke ([2]; group E, PO 2.5 mg gaboxadol/kg, tryptophan 50 mg/kg): 0.50 ± 0.03 h⁻¹
ke ([2]; group F, PO 2.5 mg gaboxadol/kg, tryptophan 150 mg/kg): 0.48 ± 0.07 h⁻¹
effect of tryptophan coadministration on elimination rate constants (ke) and clearance (CL) of gaboxadol ([2]; in vivo, po): did not change
clearance ([2]; male, beagle, in vivo, iv, 2.5 mg/kg): 7.6 mL/min/kg
AUC ([2]; male, beagle, in vivo, iv, 2.5 mg/kg, AUC): 5620 ± 377 ng·h/mL
Cmax ([2]; male, beagle, in vivo, iv, 2.5 mg/kg, Cmax): 5490 ± 404 ng/mL
AUC [2, 7]: 4760 ± 350 ng·h/mL
Cmax [2, 7]: 2473 ± 178 ng/mL
Fa (bioavailability) [2, 7]: 86.1%
Tmax [2, 7]: 21 ± 7.8 min
AUC ([2]; male, beagle, in vivo, po, 2.5 mg/kg, AUC): 4720 ± 248 ng·h/mL
Cmax ([2]; male, beagle, in vivo, po, 2.5 mg/kg, Cmax): 2500 ng/mL
bioavailability [2, 7]: 85.3 ± 5.7%
Tmax ([2]; male, beagle, in vivo, po, 2.5 mg/kg, Tmax): 27.6 min
CL [2, 8]: 10.8 ± 0.983 mL/min/kg
AUC ([2]; male, beagle, in vivo, po, 10 mg/kg, AUC): 4030 ± 339 ng·h/mL
Cmax ([2]; male, beagle, in vivo, po, 10 mg/kg, Cmax): 1870 ± 114 ng/mL
bioavailability [2, 8]: 75%
Tmax ([2]; male, beagle, in vivo, po, 10 mg/kg, Tmax): 32.4 ± 9 min
CL [2, 9]: 9.82 ± 0.433 mL/min/kg
AUC ([2]; male, beagle, in vivo, po, 50 mg/kg, AUC): 4290 ± 211 ng·h/mL
Cmax ([2]; male, beagle, in vivo, po, 50 mg/kg, Cmax): 1660 ± 37 ng/mL
bioavailability [2, 9]: 78.2 ± 6.3%
Tmax ([2]; male, beagle, in vivo, po, 50 mg/kg, Tmax): 27.6 ± 7.2 min
CL [2, 10]: 11.7 ± 2.53 mL/min/kg
AUC ([2]; male, beagle, in vivo, po, 150 mg/kg, AUC): 4400 ± 801 ng·h/mL
Cmax ([2]; male, beagle, in vivo, po, 150 mg/kg, Cmax): 1420 ng/mL
bioavailability [2, 10]: 79.7 ± 14.5%
Tmax ([2]; male, beagle, in vivo, po, 150 mg/kg, Tmax): 90 min
Cmax ± S.E.M. [3, 11]: 4109 ± 302.6 ng/mL
T1/2 [3, 11]: 44 min
Tmax [3, 11]: 5 min
Tmax ± S.E.M. [3, 11]: 5 ± 0.0 min
Cmax ([3]; male, Sprague-Dawley, in vivo, iv, 2.5 mg/kg, Cmax ± S.E.M.): 2850 ± 312 ng/mL
half-life ([3]; male, Sprague-Dawley, in vivo, iv, 2.5 mg/kg, T1/2): 26 min
AUC-dose-linearity: AUC of group G relative to group K ([3]; in vivo): five times
AUC of group K relative to group L ([3]; in vivo, iv, 2.5 mg/kg): ~3 times
Ke ± S.E.M. ([3]; treatment K, no 5-HTP): 0.0266 ± 0.0008 min⁻¹
Ke ± S.E.M. ([3]; treatment L, 5-HTP 100 mg/kg by oral gavage 30 min prior): 0.0181 ± 0.0030 min⁻¹
